# Results: patent US10874643B2 (priority 2015, dated 2020)
# Where two headings read alike, the source gives them in different places.
# What was measured:
# [1] = test system: scn1Lab mutants; assay: Locomotion tracking assay of seizure behavior (96-well format); conditions: for swim activity / seizure behavior, third evaluation: 100 μM, 10 fish per trial; for seizure-induced swim activity and mean velocity, re-test on separate clutch: 667, 67 and 6.7 μM; for effect on locomotor seizure behavior: 1 mM, 5 dpf, 6-12 fish
# [2] = test system: scn1Lab mutants; assay type: in vivo, zebrafish; conditions: for forebrain electrographic seizure activity in the same mutants after the locomotion assay: 100 μM, mutant embedded in agar
# [3] = test system: wild-type larvae; assay: DMSO toxicity in wild-type larvae; conditions: dilutions between 0.01 and 100%; n=12 fish per concentration
# [4] = 1 mM bath applied, 5-6 dpf, seven fish per drug, vs baseline
# [5] = 1 mM bath applied, agar-embedded mutants 5-6 dpf, seven fish per drug, vs baseline
structure (smiles),measurement,setting,value
C#CCN(C)CCCOc1ccc(Cl)cc1Cl [Clorgiline],"swim activity / seizure behavior, third evaluation",[1],reduced swim activity
same,"seizure-induced swim activity and mean velocity, re-test on separate clutch",[1],effective in reducing seizure-induced swim activity and mean velocity
same,forebrain electrographic seizure activity in the same mutants after the locomotion assay,[2],electrographic seizure events were still observed
C[S+](C)[O-] [DMSO],lethal DMSO concentration,[3],> 25%
CN1C(=O)CN=C(c2ccccc2)c2cc(Cl)ccc21 [diazepam],effect on locomotor seizure behavior,[1],effectively inhibited seizure behavior
same,Epileptiform event frequency (burst frequency; interictal- and ictal-like discharges),"[2]; zebrafish, in vivo",reduced
same,fractional time spent seizing,"[2]; zebrafish, in vivo",reduced
CCC1(C)CC(=O)NC1=O (centres unmarked) [ethosuximide],effect on locomotor seizure behavior,[1],increased seizure behavior
same,fish in which epileptiform activity became more frequent following exposure,"[2]; 1 mM, seven fish per drug",4 of 7
[Br-].[K+] [potassium bromide],effect on locomotor seizure behavior,[1],effectively inhibited seizure behavior
same,fractional time spent seizing,[2]; [4],reduced
same,Epileptiform event frequency (burst frequency; interictal- and ictal-like discharges),[2]; [5],reduced
CC(C)(C)C(O)/C=C/c1ccc2c(c1)OCO2 (centres unmarked) [stiripentol],effect on locomotor seizure behavior,[1],effectively inhibited seizure behavior
same,fractional time spent seizing,[2]; [4],reduced
same,Epileptiform event frequency (burst frequency; interictal- and ictal-like discharges),[2]; [5],reduced
Cc1ccc(C(=O)C(C)CN2CCCCC2)cc1 (centres unmarked) [tolperisone],"swim activity / seizure behavior, third evaluation",[1],reduced swim activity
same,"seizure-induced swim activity and mean velocity, re-test on separate clutch",[1],effective in reducing seizure-induced swim activity and mean velocity
same,forebrain electrographic seizure activity in the same mutants after the locomotion assay,[2],electrographic seizure events were still observed
O=c1n(CCCN2CCN(c3cccc(Cl)c3)CC2)nc2ccccn12 [trazodone],5HT library first-pass locomotion screen,"[1]; 250 μM, 6 fish per drug, positive hit = reduction in mean swim velocity ≥38%",positive hits
same,toxicity in the locomotion assay,[1]; 750 μM,toxic
same,"inhibition of spontaneous seizure behavior, concentration-response re-test","[1]; concentrations between 100 and 750 μM, 30 or 90 min exposure, threshold ≥40%",robust inhibition of spontaneous seizure behavior
same,epileptic seizure events in sample EEG traces,[2]; FIG. 12B,suppression of epileptic seizure events
same,EEG activity,"[2]; concentrations between 250 and 500 μM, n=15",effectively suppressed EEG activity
